# Reference: patent publication US8871971B2, “Protection of normal cells” (priority 2002, dated 2014)
# How the values were obtained:
# [1] = tested on: Sulindac reductase activity in calf liver; assay: Sulindac reductase activity in calf liver fractions; assay type: biochemical, bovine; conditions: mitochondria, S-100 and S-100 pellet of liver; preliminary evidence
# Experimental: Mammalian enzymes. […] To prepare mitochondria, the S10 pellets were suspended in 20 ml buffer A. […] The tubes were centrifuged at 24,000×g for 24 min. The pellets were resuspended in buffer A and centrifuged at 20,000×g for 15 min. The pellets (containing mitochondria) were suspended in 2 ml of buffer A. All fractions were stored at -80° C.
# PC-12 cells = assay: Viability of PC-12 cells treated with MPP+ (trypan blue exclusion); assay type: cell-based; conditions: for Dead cells (%) Exp 1 / Dead cells (%) Exp 2: 0.2 mM MPP+ 24 h
# MsrA [2] = biological target: T1, MsrA (Escherichia coli, UniProt P0A744); assay: Extraction reductase assay, sulindac as substrate; conditions: 250 ng MsrA
# From the text: (§2) Bacterial enzymes. […] The enzyme preparations had specific activities similar those reported earlier.
# MsrB [3] = biological target: T2, MsrB (Escherichia coli, UniProt P0A746); assay: Reductase assay with TLC of products; conditions: 100 nmoles substrate, 21 μg MsrB, 15 mM DTT, 2 hours 37° C.
# Experimental: (§3) Reductase assay and thin layer chromatography (TLC). […] Incubation was carried out for 2 hours at 37° C., at the end of which the duplicate samples were combined and dried in a speed-vacuum unit at room temperature. The residue was suspended in 50 μl of ethanol, which was then loaded onto a silica gel TLC plate. The plate was developed with butanol: acetic acid:water (60:15:25) as the solvent. The compounds were visualized by their yellow color.
# Normal Lung cells [4] = assay: Viability of normal lung cells exposed to TBHP (MTS assay); assay type: cell-based; conditions: 500 μM for 48 hr, then TBHP 2 hr
# Experimental: Normal lung cells were treated with 500 μM sulindac-(R+S; near 50% each), 500 μM sulindac-R (>99% R; <1% S) or 500 μM sulindac-S (>99% S; <1% R) for 48 hr. The sulindac-R and sulindac-S samples were obtained from a racemic mixture of epimers using a chiral column analogous to the process described above. The cells were washed and then exposed to the indicated concentration of tert-Butyl Hydroperoxide (TBHP) for 2 hr. Cell viability was measured using the standard MTS assay. A background absorbance of 0.12 was subtracted from average of four replicate samples. The data are plotted as a bar graph because the concentrations are not in equal intervals. The error bars are the SEM of four replicate samples. The data are presented on three separate graphs using the untreated samples from that plate.
# fSMsr = assay: Extraction reductase assay, sulindac as substrate; conditions: 200 μg fSMsr
# From the text: as §2
# G93A transgenic mice = assay: G93A SOD1 transgenic mouse model of familial ALS; assay type: in vivo
# Experimental: Transgenic mice expressing a mutant form of SOD similar to that found in human ALS patients were used for this study. Transgenic male mice with a G93A human SOD1 (G1H/+) mutation (B6SJL-TgN (SOD1-G93A)1 Gur; Jackson Laboratories, ME) were used to breed with female B6SJL mice (Jackson Laboratories, ME). The F1 generations were genotyped for the G93A mutation with polymerase chain reaction (PCR) using tail DNA, and two specific primers from the SOD1 gene.
# Motor performance was assessed by Rotarod testing for each group and survival time was recorded.
# Motor function testing. Mice were trained for 2-3 days to become acquainted with the Rotarod apparatus (Columbus instruments, Columbus, Ohio). Rotarod performances were assessed in G93A mice starting at 60 days of age. The testing began with placing the mice on a rod that rotates at 12 rpms. The time period that the mice stayed on the rod before falling off was recorded as a measurement of the competence of their motor function. Three trials were performed, and the best result of the three trials was recorded representing the status of the motor performance. Mice were tested twice a week until they could no longer perform the task.
# Survival times. The initial sign of disease in G93A transgenic mice is a resting tremor that progresses to gait impairment, asymmetrical or symmetrical paralysis of the hind limbs, and ultimately complete paralysis at the end stage. Mice were sacrificed when they were unable to roll over within 20 seconds after being pushed on their side. This time point was determined to be the time of survival, at which time the mice were sacrificed.
# Light microscopic immunocytochemistry. Mice were perfused transcardially with cold 0.1M phosphate-buffered saline (PBS) for 1 minute followed by cold 4% paraformaldehyde in PBS for 10 minutes. The spinal cords were removed rapidly, blocked coronally, and post-fixed in 4% paraformaldehyde in PBS for 6 hours. Blocks were cryo-protected in 30% sucrose for 24 hours and were sectioned on a cryostat at a thickness of 35 micrometers. All protocols were conducted within NIH guidelines for animal research and were approved by the Institutional Animal Care and Use Committee (IACUC).
# Serial transverse sections (50 μm thick) were cut on a cryostat and collected for Nissl staining. Every fourth section was analyzed for neuronal volume and number using the optical fractionator and nucleator probes of the Stereo Investigator System (Microbrightfield, Colchester, Vt.). Six tissue sections of the lumbar spinal cord from each mouse were analyzed. All cells were counted from within the ventral horn below a horizontal line across the gray matter through the ventral border of the central canal. Photomicrographs were taken on a Zeiss Axiophot II microscope.
# Statistical analysis. Statistical analysis of survival was performed using Kaplan-Meier test for survival measured in postnatal days, Fisher's Test for mean age of death analysis, and Scheffe test for motor performance.
# MsrB [5] = biological target: T2, MsrB; assay: Extraction reductase assay, sulindac as substrate; conditions: 10 μg MsrB
# From the text: as §2
# MsrA1 = assay: Extraction reductase assay, sulindac as substrate; conditions: 40 μg MsrA1
# From the text: as §2
# [6] = tested on: Membrane Msr (mem-R,S-Msr); assay: Extraction reductase assay, sulindac as substrate; assay type: biochemical, E. coli; conditions: for Nmoles formed: 35 μg of membrane fraction
# MsrA from E. coli = MsrA from E. coli (Escherichia coli, UniProt P0A744); assay: Reductase assay (NADPH oxidation): reduction of sulindac to sulindac sulfide by MsrA
# Experimental: Reductase assay. […] Incubations were performed at 37° C. for various times.
# At the end of incubation, 500 μl of 0.5 M Bis-Tris-Cl pH 5.5 and 3 ml of ethyl acetate were added. The tubes were mixed (vortexed) for 5 seconds (3 times). After separation, the organic phase was removed and another 3 ml of ethyl acetate were added. After mixing the organic phase was again removed.
# Drosophila = assay: Survival of flies exposed to paraquat oxidative stress; assay type: in vivo; conditions: for Flies alive: 2.5 mM paraquat, 2 mM sulindac; for Survival rate: 10 mM paraquat
# Experimental: Paraquat is a cytotoxic compound known to form superoxide radicals intracellularly. Three different concentrations of paraquat (i.e., 2.5 mM, 5 mM and 10 mM) were tested. […] After 3 days at 25° C., flies were transferred to test vials for counting.
# MsrA [7] = biological target: T1, MsrA; assay: Reductase assay with TLC of products; conditions: 100 nmoles substrate, 3 μg MsrA, 15 mM DTT, 2 hours 37° C.
# Experimental: as §3
# fRMsr = fRMsr (Escherichia coli, UniProt P76270); assay: Extraction reductase assay, sulindac as substrate; conditions: 290 μg fRMsr
# From the text: as §2
# Normal Cardiomyocyte = assay: Conversion of sulindac epimers to the sulfide in cells; assay type: in vitro ADME; conditions: 200 μM epimer, 4 hours, serum-free medium
# Experimental: (§1) After incubation, the cells are collected, rinsed and lysed with acetonitrile. The cytosolic contents are separated on a C-18 column.
# HeLa cells = assay: as above; assay type: in vitro ADME; conditions: 200 μM epimer, 4 hours, serum-free medium
# Experimental: as §1
# [8] = tested on: Cancer Skin (skin SCC) cells; assay: as above; assay type: in vitro ADME; conditions: 200 μM epimer, 4 hours, serum-free medium
# Experimental: as §1
# Cancer Lung cells = assay: as above; assay type: in vitro ADME; conditions: 200 μM epimer, 4 hours, serum-free medium
# Experimental: as §1
# Normal Lung cells [9] = assay: as above; assay type: in vitro ADME; conditions: 200 μM epimer, 4 hours, serum-free medium
# Experimental: as §1
# rat hearts = assay: Ischemia/reperfusion in Langendorff heart, LDH release; assay type: in vivo, rats; conditions: 0.1 mg in diet for 2 days; ischemia 45 minutes, reperfusion 2 hours
# Experimental: […]. […] The hearts were removed, exposed to ischemia for 45 minutes and then perfused for 2 hours (reperfusion) using a Langendorff procedure. The cellular damage was measured by assaying for the release of lactic dehydrogenase (LDH).
# [10] = 0.1 mM sulindac 48 h pretreatment
# [11] = 0.2 mM sulindac 48 h pretreatment
# [12] = 0.5 mM sulindac 48 h pretreatment
# [13] = 0.5 mM sulindac pretreatment, 0.2 mM MPP+
# [14] = Tube 2: no MsrA, sulindac 5 μl (0.2M), thioredoxin 3 μl
# [15] = Tube 3: MsrA 1 μl (100 ng/μl), 20 min
# [16] = Tube 4: MsrA 2 μl (100 ng/μl), 20 min
# [17] = Tube 5: MsrA 4 μl (100 ng/μl), 20 min
# [18] = Tube 7: MsrA 2 μl (100 ng/μl), 10 min
# [19] = Tube 8: MsrA 2 μl (100 ng/μl), 30 min
# T2 sequence (P0A746 whole entry): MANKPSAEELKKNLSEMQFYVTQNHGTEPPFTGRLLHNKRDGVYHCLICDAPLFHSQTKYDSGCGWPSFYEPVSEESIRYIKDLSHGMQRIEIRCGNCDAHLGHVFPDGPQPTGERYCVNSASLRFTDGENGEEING
# T1 sequence (P0A744 whole entry): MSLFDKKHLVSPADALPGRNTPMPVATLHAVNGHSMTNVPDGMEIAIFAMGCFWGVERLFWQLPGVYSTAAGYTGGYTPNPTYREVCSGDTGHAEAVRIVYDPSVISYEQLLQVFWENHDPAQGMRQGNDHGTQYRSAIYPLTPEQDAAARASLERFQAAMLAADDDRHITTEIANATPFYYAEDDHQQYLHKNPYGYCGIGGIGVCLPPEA
# Sequence of MsrA from E. coli (P0A744 whole entry): as above
# Sequence of fRMsr (P76270 whole entry): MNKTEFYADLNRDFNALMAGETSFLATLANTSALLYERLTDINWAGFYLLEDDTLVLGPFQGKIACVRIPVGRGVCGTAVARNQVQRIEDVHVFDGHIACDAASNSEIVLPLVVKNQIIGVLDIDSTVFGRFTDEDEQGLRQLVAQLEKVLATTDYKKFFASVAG
structure (smiles),measurement,setting,value
C[S@@+]([O-])CC[C@H](N)C(=O)O [Met-R—(O)],Effect of added excess Met(O) epimer on sulindac reductase activity,[1],only a slight effect
CC1=C(CC(=O)O)c2cc(F)ccc2/C1=C\c1ccc([S+](C)[O-])cc1 (stereo not shown) [Sulindac],Dead cells (%) Exp 1,PC-12 cells; [10],67%
same,Dead cells (%) Exp 2,PC-12 cells; [10],74%
same,Dead cells (%) Exp 1,PC-12 cells; [11],55%
same,Dead cells (%) Exp 2,PC-12 cells; [11],39%
same,Dead cells (%) Exp 1,PC-12 cells; [12],34%
same,Dead cells (%) Exp 2,PC-12 cells; [12],35%
same,Cell death,PC-12 cells; [13],approximately 35%
same,Cell survival,PC-12 cells; [13],~65%
same,Effect on viability of the cells,PC-12 cells; in the absence of MPP+,no effect on the viability of the cells
same,Units of activity,MsrA [2],11.3 nmoles of SS formed per hour
same,Substrate for MsrB (reduction products on TLC),MsrB [3],not a substrate for MsrB
same,TBHP concentration after which protection declined rapidly,Normal Lung cells [4],80 to 100 µM
same,Units of activity,fSMsr,0 nmoles of SS formed per hour
same,Motor performance (Rotarod performance times),G93A transgenic mice; 300 PPM and 450 PPM groups vs G93A controls,significant improvement in motor performance
same,Mean survival time,G93A transgenic mice; 300 PPM in food from postnatal day 30,135.17 ± 11.4 days
same,Increase in survival over control mice,G93A transgenic mice; 450 PPM in food,7%
same,Average survival,G93A transgenic mice; 450 PPM in food from postnatal day 30,131.17 ± 10.9 days
same,"Scheffe for motor performance, Mean Diff.",G93A transgenic mice; Controls vs Sulindac 300 PPM,−59.443
same,"Scheffe for motor performance, Mean Diff.",G93A transgenic mice; Controls vs Sulindac 450 PPM,−73.119
same,"Scheffe for motor performance, Mean Diff.",G93A transgenic mice; Sulindac 300 PPM vs Sulindac 450 PPM,−13.676
same,Counts of motor neurons in spinal cord sections,G93A transgenic mice; vs G93A controls,significantly higher counts of motor neurons
same,Units of activity,MsrB [5],0 nmoles of SS formed per hour
same,Units of activity,MsrA1,<0.9 nmoles of SS formed per hour
same,Nmoles formed,[6],2.75 nmol
same,Units of activity,[6]; 50 μg membrane fraction,5.1 nmoles of SS formed per hour
same,OD340,MsrA from E. coli; [14],0.660
same,Sulindac sulfide,MsrA from E. coli; [14],0 nmol
same,OD340,MsrA from E. coli; [15],0.622
same,Sulindac sulfide,MsrA from E. coli; [15],5.8 nmol
same,Δ OD340,MsrA from E. coli; [15],0.038
same,OD340,MsrA from E. coli; [16],0.586
same,Sulindac sulfide,MsrA from E. coli; [16],11.2 nmol
same,Δ OD340,MsrA from E. coli; [16],0.074
same,OD340,MsrA from E. coli; [17],0.522
same,Sulindac sulfide,MsrA from E. coli; [17],21.0 nmol
same,Δ OD340,MsrA from E. coli; [17],0.138
same,OD340,"MsrA from E. coli; Tube 6: MsrA 2 μl, no thioredoxin, 20 min",0.684
same,OD340,MsrA from E. coli; [18],0.626
same,Sulindac sulfide,MsrA from E. coli; [18],5.2 nmol
same,Δ OD340,MsrA from E. coli; [18],0.034
same,OD340,MsrA from E. coli; [19],0.531
same,Sulindac sulfide,MsrA from E. coli; [19],19.4 nmol
same,Δ OD340,MsrA from E. coli; [19],0.129
same,Flies alive,Drosophila; 3 day,approximately 95%
same,Flies alive,Drosophila; 6 day,~60%
same,Survival rate,Drosophila; after 2 days,~85%
same,Survival rate,Drosophila; after 3 days,~57%
same,Substrate for MsrA (reduction products on TLC),MsrA [7],substrate for MsrA
same,Units of activity,fRMsr,0 nmoles of SS formed per hour
C[S+]([O-])CC[C@H](N)C(=O)O (stereo partly shown) [Met-S—(O)],Effect of added excess Met(O) epimer on sulindac reductase activity,[1],inhibited the activity in all three fractions
CSCCC(NC(=O)CC1=C(C)/C(=C/c2ccc([S+](C)[O-])cc2)c2ccc(F)cc21)C(=O)O (stereo not shown) [SMO],Substrate for MsrB (reduction products on TLC),MsrB [3],substrate for MsrB
same,Substrate for MsrA (reduction products on TLC),MsrA [7],substrate for MsrA
"CC1=C(CC(=O)O)c2cc(F)ccc2/C1=C\c1ccc([S@+](C)[O-])cc1 [S-epimer, S-sulindac sulfoxide]",Amount formed (picomoles),Normal Cardiomyocyte,120.9 picomoles
same,Amount formed (picomoles),HeLa cells,7.9 picomoles
same,Amount formed (picomoles),[8],57 picomoles
same,Amount formed (picomoles),Cancer Lung cells,17.7 picomoles
same,Amount formed (picomoles),Normal Lung cells [9],35 picomoles
same,TBHP concentration at which error bars begin to overlap,Normal Lung cells [4],~220 µM
same,TBHP concentration up to which protection is seen,Normal Lung cells [4],~180 µM
"CC1=C(CC(=O)O)c2cc(F)ccc2/C1=C\c1ccc([S@@+](C)[O-])cc1 [R-epimer, R-sulindac sulfoxide]",Protection against TBHP compared with other forms,Normal Lung cells [4],protects better as compared to sulindac-(R+S) or Sulindac-S
same,TBHP concentration up to which protection is seen,Normal Lung cells [4],340 µM
same,Nmoles formed,[6],2.41 nmol
same,Protection of hearts from ischemia/reperfusion damage (LDH release),rat hearts,protects their hearts from oxidative damage
